In patent US8921405B2, “Compounds” (Orexo AB, priority 2009, dated 2014):
pIC50: −log10 of the molar value.

Biological target: T1, recombinant human mPGES-1 (Homo sapiens, UniProt O14684)
T1 construct: made in house; host or cells: Rosetta E. coli (membrane/microsome fraction)
T1 sequence (O14684 1-152): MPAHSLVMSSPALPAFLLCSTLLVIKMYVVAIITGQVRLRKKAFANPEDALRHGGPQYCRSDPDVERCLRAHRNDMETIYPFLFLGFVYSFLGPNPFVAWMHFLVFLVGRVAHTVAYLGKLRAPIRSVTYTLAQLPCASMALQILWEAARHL
Experiment: mPGES-1 HTRF assay (inhibition of PGE2 formation from PGH2)
Type: biochemical
Details: HTRF assay
Summary of the method: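 Microsomes of E. coli expressing human mPGES-1, in 0.1 M KPi pH 7.4 with 2.5 mM GSH, preincubated 25 min at room temperature with inhibitor, then given PGH2 for 1 min before FeCl2 acidic stop. PGE2 quantified by HTRF (665/620 nm ratio) against synthetic PGE2 standard curve; percent inhibition versus controls.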

| pIC50 | SMILES |
| --- | --- |
| 8.30 | Cn1c(Nc2cc(CNC(=O)C(C)(C)C)ccc2Cl)nc2cc(C(=O)N[C@H]3CC[C@H](C(F)(F)F)CC3)c(OCCF)cc21 [Example 97, N-(trans-4-Trifluoromethyl-cyclohex-1-yl)-1-methyl-2-(2-chloro-5-{[(tert-butylcarbonyl)-amino]-methyl}-phenylamino)-6-(2-fluoro-ethoxy)-1H-benzimidazole-5-carboxylic acid amide] |
| 8.22 | Cn1c(Nc2cc(CNC(=O)C(C)(C)C)ccc2Cl)nc2cc(C(=O)N[C@H]3CC[C@H](C(F)(F)F)CC3)c(OCC(F)(F)F)cc21 [Example 98, N-(trans-4-Trifluoromethyl-cyclohex-1-yl)-1-methyl-2-(2-chloro-5-{[(tert-butylcarbonyl)-amino]-methyl}-phenylamino)-6-(2,2,2-trifluoro-ethoxy)-1H-benzimidazole-5-carboxylic acid amide] |
| < 7.00 | COc1ccc(CNC(=O)C(C)(C)C)cc1Nc1nc2cc(C(=O)N[C@H]3CC[C@H](C(F)(F)F)CC3)c(Cl)cc2[nH]1 [Example 99, N-(trans-4-Trifluoromethyl-cyclohex-1-yl)-2-(2-methoxy-5-{[(tert-butylcarbonyl)-amino]-methyl}-phenylamino)-6-chloro-1H-benzimidazole-5-carboxylic acid amide] |
| 8.30 | CC(C)(C)C(=O)NCc1ccc(Cl)c(Nc2nc3cc(C(=O)Nc4ccc(Br)cc4)c(OCC(F)F)cc3n2CC(F)F)c1 [Example 100, N-(4-Bromo-phenyl)-2-(2-chloro-5-{[(tert-butylcarbonyl)-amino]-methyl}-phenylamino)-6-(2,2-difluoro-ethoxy)-1-(2,2-difluoroethyl)-1H-benzimidazole-5-carboxylic acid amide] |
